These results are taken from a melting point compilation (Tetko et al.; mined from patent text by program, amines drawn as free bases though some values may be those of a salt).

Molecules are shown by their SMILES.

In the case of `O=Cc1c2ccccc2c(Cl)c2ccc(Cl)cc12`, the melting point (in general, the temperature, or range, at which the solid turns liquid) is 176 °C. `CCCCCOC1CCC(=O)N1` (centres undefined) registered a melting point of 42 to 43 °C.

As to `CCCN(CCC)C1Cc2cccc(C(N)=O)c2NC1=O` (centres undefined), the melting point lay within 214 to 217 °C.

In the case of `CC(C)(N)COc1ccc(O)c(C(N)=O)c1`, the melting point is 115 to 117 °C.

On to `CN1C(=O)C(Br)=C(c2cn(S(=O)(=O)c3ccccc3)c3ncccc23)C1=O`, for which the melting point is 198 °C.

`CC(C)C1NC(=O)[C@H](CS)NC1=O` (some centres undefined) showed a melting point of more than 275 °C. In turn, `CC(C)(C)c1nc(C(=O)O)c(Cl)c(N)c1F` registered a melting point of 149 to 151 °C. Consider `COCCOc1ccc(-c2ccc3c(c2)C=C(C(=O)Nc2ccc(CN(C)C4CCOCC4)cc2)CCS3(=O)=O)cc1`, for which the melting point is 227 to 231 °C.

As for `Fc1ccccc1C(Cl)(c1ccccc1)c1ccccc1`, the melting point lay within 134 to 135 °C. The same measure for `COc1cc(C=CC(=O)c2ccccc2[N+](=O)[O-])cc(OC)c1`: 98.4 to 98.9 °C; for `O=C(N[C@H](Cc1ccc(F)cc1)[C@@H](O)c1ccc(C(F)(F)F)cc1)C1CCCCC1` (racemic): 220 to 221 °C; for `CC(=O)N1CCC(c2ccccc2)c2cccc(CCN3CCN(c4nsc5ccccc45)CC3)c21` (centres undefined): 97 °C. On to `CCOC(=O)c1c(Cn2cnnc2)nc2sc(C)c(C)c2c1-c1ccc(Cl)cc1`, for which the melting point is 138 to 139 °C. As to `COCC(COC)N(C)Cc1ccc(NC(=O)C2=Cc3cc(-c4ccc(C)cc4)ccc3OCC2)cc1`, the melting point lay within 128 to 132 °C. Consider `O=S(=O)(Nc1ccc(I)cc1)N1CCOCC1`, for which the melting point was determined as 91 °C.

The compound `CC(=O)c1ccc(N(C)Cc2ccccc2)c(S(N)(=O)=O)c1` yielded a melting point of 159 to 161 °C. Take `OC1Oc2ccccc2-n2cnc(-c3noc(C4CC4)n3)c21` (centres undefined): the melting point is 230 to 234 °C. On to `O=C(CBr)N[C@H](CO)Cc1ccccc1`, for which the melting point fell in the range of 83 to 85 °C. The result for `O=C(O)CN1CCC[C@H](OCc2cc(C(F)(F)F)cc(C(F)(F)F)c2)[C@@H]1c1ccccc1` reads 60 to 63 °C; that for `CC1(C)Cc2c(sc(N)c2C(N)=O)CO1`, 212 to 214 °C; that for `COc1ccc(N2CCN(c3c(C)c(C)c4c(c3C)C(N3CCCCC3)C(C)(C)O4)CC2)cc1` (centres undefined), 146 to 148 °C. Compound `CCOC(=O)C(=O)N1CCC(Cc2ccc(F)cc2)CC1` registered a melting point of 72 to 74 °C. The same measure for `CCn1cc(CN(C(=O)C2CCCc3cc(O)ccc32)c2ccc(C(C)C)cc2)cn1` (centres undefined): 146 to 147 °C.

In turn, `Cn1cc(C(=O)c2ccnc(Cl)c2)cc1C(=O)c1ccc(Cl)cc1` yielded a melting point of 182 to 184 °C. Take `Cc1nc(C)c(CC(=O)O)c(-c2ccccc2)c1CC(=O)O`: the melting point is 137 to 138 °C. The result for `COc1ccc(C(=O)Nc2c(Cl)cncc2Cl)c2c1OCC2CC(=O)NCc1ccc(F)cc1` (centres undefined) reads 287 °C; that for `O=C(O)c1cc(NCc2c(F)c(F)c(C(F)(F)F)c(F)c2F)ccc1Cl`, 58 °C. `O=C(O)c1ccc(-c2cnc3c(c2)N(Cc2cc(F)ccc2F)C(=O)CN3)cc1` yielded a melting point of more than 300 °C.

`O=[N+]([O-])c1ccc(CNc2ncnc3c2ncn3C2OC(CO)C(O)C2O)cc1` (centres undefined): the melting point was in the range of 168 to 169 °C. The same measure for `Cc1ccc2cccc(OCc3c(Cl)ccc(N(C)C(=O)CNC(=O)CN4CCN(c5ccc([N+](=O)[O-])cc5)CC4)c3Cl)c2n1`: 178 to 181 °C; for `COc1cc(NC(=O)CCCCCN2CCN(C)CC2)c2nccc(C)c2c1`: 104 to 107 °C; for `NNc1nccc(-c2ccc3c(ccn3-c3ccccn3)c2)c1Cl`: 173 °C. Take `Cc1ccc(C=CC(=O)NC(C)c2ccc(NS(C)(=O)=O)c(F)c2)cc1C` (centres undefined): the melting point fell in the range of 212 to 213 °C. Take `COc1cccc(-c2cnc(-c3ccoc3)s2)c1`: the melting point lay in the range of 61 to 62 °C.
